According to patent US20230372301A1, “TREATMENTS WITH NIROGACESTAT” (SpringWorks Therapeutics, Inc., priority 2022, published 2023):
Structures can show the parent of a compound that is named as a salt. Where two headings read alike, the source gives them in different places.

Experiments:
[1] = Pharmacokinetics of single oral doses of nirogacestat dihydrobromide; format: in vivo, human; details: for AUC(0-inf) / AUC(0-t) / Cmax / half-life / Tmax / Vd/F: human, in vivo, po
[2] = Pharmacokinetics of 150 mg nirogacestat dihydrobromide twice daily at steady state exposure; format: in vivo, human; details: 150 mg (free base equivalent dose) twice daily, oral
Method: The pharmacokinetic parameters for oral doses of 150 mg (free base equivalent dose) nirogacestat dihydrobromide twice daily at steady state exposure is provided in Table 2E below.

[3] = COHORT 1: 150 mg (1 × 150 mg), Period 2
[4] = COHORT 1: 150 mg (3 × 50 mg), Period 1
[5] = human, in vivo, steady state exposure

In the case of CCC[C@H](N[C@H]1CCc2cc(F)cc(F)c2C1)C(=O)Nc1cn(C(C)(C)CNCC(C)(C)C)cn1 [nirogacestat dihydrobromide], the “CL/F, Geometric Mean” value [1, 3] is reported as 49.7 L/h, the “CL/F, Median” value [1, 3] is reported as 48.4 L/h and the “CL/F, Geometric Mean” value [1, 4] is reported as 49.2 L/h. For the same molecule, the “CL/F, Median” value [1, 4] was 57.0 L/h, the “CL/F, Geometric Mean” value ([1]; COHORT 2: 100 mg, Period 1) was 56.1 L/h and the “CL/F, Median” value ([1]; COHORT 2: 100 mg, Period 1) was 58.4 L/h. The “CL/F, Geometric Mean” value ([1]; COHORT 3: 50 mg, Period 1) was 87.6 L/h, the “CL/F, Median” value ([1]; COHORT 3: 50 mg, Period 1) was 74.9 L/h and the AUC(0-inf) ([1]; 50 mg, COHORT 3: 50 mg, Period 1, read-out: AUCinf, Geometric Mean) was 571 ng·h/mL. For the same molecule, the AUC(0-inf) ([1]; 50 mg, COHORT 3: 50 mg, Period 1, read-out: AUCinf, Median) was 674 ng·h/mL, the AUC(0-t) ([1]; 50 mg, COHORT 3: 50 mg, Period 1, read-out: AUClast, Geometric Mean) was 545 ng·h/mL and the AUC(0-t) ([1]; 50 mg, COHORT 3: 50 mg, Period 1, read-out: AUClast, Median) was 653 ng·h/mL. The Cmax ([1]; 50 mg, COHORT 3: 50 mg, Period 1, read-out: Cmax, Geometric Mean) was 183 ng/mL, the Cmax ([1]; 50 mg, COHORT 3: 50 mg, Period 1, read-out: Cmax, Median) was 209 ng/mL and the half-life ([1]; 50 mg, COHORT 3: 50 mg, Period 1, read-out: Half-life, Geometric Mean (converted)) was 19.3 h. For the same molecule, the half-life ([1]; 50 mg, COHORT 3: 50 mg, Period 1, read-out: Half-life, Median (converted)) was 23.3 h, the Tmax ([1]; 50 mg, COHORT 3: 50 mg, Period 1, read-out: Tmax, Geometric Mean) was 0.829 h and the Tmax ([1]; 50 mg, COHORT 3: 50 mg, Period 1, read-out: Tmax, Median) was 1 h. It also gave a Vd/F ([1]; 50 mg, COHORT 3: 50 mg, Period 1, read-out: Vz/F, Geometric Mean) of 2440 L, a Vd/F ([1]; 50 mg, COHORT 3: 50 mg, Period 1, read-out: Vz/F, Median) of 2730 L and an AUC(0-inf) ([1]; 100 mg, COHORT 2: 100 mg, Period 1, read-out: AUCinf, Geometric Mean) of 1780 ng·h/mL. The AUC(0-inf) ([1]; 100 mg, COHORT 2: 100 mg, Period 1, read-out: AUCinf, Median) was 1710 ng·h/mL, the AUC(0-t) ([1]; 100 mg, COHORT 2: 100 mg, Period 1, read-out: AUClast, Geometric Mean) was 1720 ng·h/mL and the AUC(0-t) ([1]; 100 mg, COHORT 2: 100 mg, Period 1, read-out: AUClast, Median) was 1660 ng·h/mL. It also gave a Cmax ([1]; 100 mg, COHORT 2: 100 mg, Period 1, read-out: Cmax, Geometric Mean) of 435 ng/mL, a Cmax ([1]; 100 mg, COHORT 2: 100 mg, Period 1, read-out: Cmax, Median) of 433 ng/mL and a half-life ([1]; 100 mg, COHORT 2: 100 mg, Period 1, read-out: Half-life, Geometric Mean (converted)) of 25.2 h. For the same molecule, the half-life ([1]; 100 mg, COHORT 2: 100 mg, Period 1, read-out: Half-life, Median (converted)) was 24.4 h, the Tmax ([1]; 100 mg, COHORT 2: 100 mg, Period 1, read-out: Tmax, Geometric Mean) was 1.19 h and the Tmax ([1]; 100 mg, COHORT 2: 100 mg, Period 1, read-out: Tmax, Median) was 1.28 h. For the same molecule, the Vd/F ([1]; 100 mg, COHORT 2: 100 mg, Period 1, read-out: Vz/F, Geometric Mean) was 2040 L, the Vd/F ([1]; 100 mg, COHORT 2: 100 mg, Period 1, read-out: Vz/F, Median) was 2040 L and the AUC(0-inf) ([1]; 150 mg, COHORT 1: 150 mg (1 × 150 mg), Period 2, read-out: AUCinf, Geometric Mean) was 3020 ng·h/mL. For the same molecule, the AUC(0-inf) ([1]; 150 mg, COHORT 1: 150 mg (1 × 150 mg), Period 2, read-out: AUCinf, Median) was 3100 ng·h/mL, the AUC(0-t) ([1]; 150 mg, COHORT 1: 150 mg (1 × 150 mg), Period 2, read-out: AUClast, Geometric Mean) was 2930 ng·h/mL and the AUC(0-t) ([1]; 150 mg, COHORT 1: 150 mg (1 × 150 mg), Period 2, read-out: AUClast, Median) was 3040 ng·h/mL. For the same molecule, the Cmax ([1]; 150 mg, COHORT 1: 150 mg (1 × 150 mg), Period 2, read-out: Cmax, Geometric Mean) was 686 ng/mL, the Cmax ([1]; 150 mg, COHORT 1: 150 mg (1 × 150 mg), Period 2, read-out: Cmax, Median) was 662 ng/mL and the half-life ([1]; 150 mg, COHORT 1: 150 mg (1 × 150 mg), Period 2, read-out: Half-life, Geometric Mean (converted)) was 24.7 h. The half-life ([1]; 150 mg, COHORT 1: 150 mg (1 × 150 mg), Period 2, read-out: Half-life, Median (converted)) was 26.3 h, the Tmax ([1]; 150 mg, COHORT 1: 150 mg (1 × 150 mg), Period 2, read-out: Tmax, Geometric Mean) was 1.2 h and the Tmax ([1]; 150 mg, COHORT 1: 150 mg (1 × 150 mg), Period 2, read-out: Tmax, Median) was 1.5 h. The Vd/F ([1]; 150 mg, COHORT 1: 150 mg (1 × 150 mg), Period 2, read-out: Vz/F, Geometric Mean) was 1770 L, the Vd/F ([1]; 150 mg, COHORT 1: 150 mg (1 × 150 mg), Period 2, read-out: Vz/F, Median) was 1720 L and the AUC(0-inf) ([1]; 150 mg, COHORT 1: 150 mg (3 × 50 mg), Period 1, read-out: AUCinf, Geometric Mean) was 3050 ng·h/mL. It also gave an AUC(0-inf) ([1]; 150 mg, COHORT 1: 150 mg (3 × 50 mg), Period 1, read-out: AUCinf, Median) of 2640 ng·h/mL, an AUC(0-t) ([1]; 150 mg, COHORT 1: 150 mg (3 × 50 mg), Period 1, read-out: AUClast, Geometric Mean) of 2960 ng·h/mL and an AUC(0-t) ([1]; 150 mg, COHORT 1: 150 mg (3 × 50 mg), Period 1, read-out: AUClast, Median) of 2580 ng·h/mL. The Cmax ([1]; 150 mg, COHORT 1: 150 mg (3 × 50 mg), Period 1, read-out: Cmax, Geometric Mean) was 733 ng/mL, the Cmax ([1]; 150 mg, COHORT 1: 150 mg (3 × 50 mg), Period 1, read-out: Cmax, Median) was 697 ng/mL and the half-life ([1]; 150 mg, COHORT 1: 150 mg (3 × 50 mg), Period 1, read-out: Half-life, Geometric Mean (converted)) was 25 h. It also gave a half-life ([1]; 150 mg, COHORT 1: 150 mg (3 × 50 mg), Period 1, read-out: Half-life, Median (converted)) of 26.3 h, a Tmax ([1]; 150 mg, COHORT 1: 150 mg (3 × 50 mg), Period 1, read-out: Tmax, Geometric Mean) of 1.34 h and a Tmax ([1]; 150 mg, COHORT 1: 150 mg (3 × 50 mg), Period 1, read-out: Tmax, Median) of 1.49 h. For the same molecule, the Vd/F ([1]; 150 mg, COHORT 1: 150 mg (3 × 50 mg), Period 1, read-out: Vz/F, Geometric Mean) was 1770 L, the Vd/F ([1]; 150 mg, COHORT 1: 150 mg (3 × 50 mg), Period 1, read-out: Vz/F, Median) was 1830 L and the Time to steady-state [2] was “Approximately 8 days”. The AUC [2, 5] was 6430 ng·h/mL and the Cmax [2, 5] was 1250 ng/mL.
